Test results: the supplement of paper PMC10307832

Tests used:
Assay in all cases: relative viability (nuclei count vs DMSO), 5 days (fraction); higher = more cells survive
[1] = compound: CC(=O)c1c(C)c2cnc(Nc3ccc(N4CCNCC4)cn3)nc2n(C2CCCC2)c1=O [Palbociclib] + O=C(CCCCCCC(=O)Nc1ccccc1)NO [Vorinostat] (partner 1 µM)
In short: (§1)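 Values are medians from duplicate plates. Each reflects relative viability, defined as the nuclei count of treated wells over that of vehicle wells. Lung cancer cell lines in 1536-well plates were pin-tool dosed one day after seeding with one drug alone or with a fixed anchor-drug dose plus five library-drug doses (not always all listed) in √10 steps, then fixed, stained and imaged at 4× after 5 days.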

[2] = compound: CC(=O)c1c(C)c2cnc(Nc3ccc(N4CCNCC4)cn3)nc2n(C2CCCC2)c1=O [Palbociclib] + COc1cc2c(Oc3ccc(NC(=O)C4(C(=O)Nc5ccc(F)cc5)CC4)cc3F)ccnc2cc1OCCCN1CCOCC1 [Foretinib] (partner 0.25 µM)
In short: as §1

[3] = compound: CC(=O)c1c(C)c2cnc(Nc3ccc(N4CCNCC4)cn3)nc2n(C2CCCC2)c1=O [Palbociclib] + Cc1nc(NC(=O)N2CCC[C@H]2C(N)=O)sc1-c1ccnc(C(C)(C)C(F)(F)F)c1 [Alpelisib] (partner 2 µM)
In short: as §1

[4] = compound: CC(=O)c1c(C)c2cnc(Nc3ccc(N4CCNCC4)cn3)nc2n(C2CCCC2)c1=O [Palbociclib] + N=C(N)NC(=N)NCCc1ccccc1 [Phenformin] (partner 250 µM)
In short: as §1

Cell Line	relative viability ([1]; first compound 0.01 µM)	relative viability ([1]; first compound 0.03162 µM)	relative viability ([1]; first compound 0.1 µM)	relative viability ([1]; first compound 0.3162 µM)	relative viability ([1]; first compound 1 µM)	relative viability ([2]; first compound 0.01 µM)	relative viability ([2]; first compound 0.03162 µM)	relative viability ([2]; first compound 0.1 µM)	relative viability ([2]; first compound 0.3162 µM)	relative viability ([2]; first compound 1 µM)	relative viability ([3]; first compound 0.01 µM)	relative viability ([3]; first compound 0.03162 µM)	relative viability ([3]; first compound 0.1 µM)	relative viability ([3]; first compound 0.3162 µM)	relative viability ([3]; first compound 1 µM)	relative viability ([4]; first compound 0.01 µM)	relative viability ([4]; first compound 0.03162 µM)	relative viability ([4]; first compound 0.1 µM)	relative viability ([4]; first compound 0.3162 µM)	relative viability ([4]; first compound 1 µM)
NCI-H1993	0.8	0.539	0.625	0.644	0.65	0.815	0.633	0.671	0.627	0.52	0.679	0.635	0.597	0.614	0.631	0.467	0.474	0.464	0.445	0.556
NCI-H2085	0.816	0.786	0.748	0.63	0.383	1.03	0.875	0.744	0.599	0.534	1.03	0.891	0.923	0.84	0.616	0.667	0.555	0.616	0.592	0.399
COR-L 105	0.9	0.887	0.612	0.611	0.482	0.841	0.826	0.992	0.595	0.449	0.916	0.888	0.792	0.7	0.444	0.467	0.54	0.381	0.385	0.33
SK-LU-1	0.805	0.748	0.617	0.529	0.436	0.825	0.74	0.571	0.552	0.361	1.02	0.921	0.581	0.599	0.464	0.546	0.418	0.309	0.314	0.254
NCI-H2342	0.713	0.63	0.895	0.638	0.585	0.986	0.974	0.749	0.995	0.662	–	–	–	–	–	0.569	0.555	0.477	0.564	0.441
PC-3 [JPC-3]	0.817	0.673	0.699	0.507	0.381	1.1	0.955	0.884	0.855	0.64	1.06	1.02	0.851	0.88	0.618	0.514	0.464	0.459	0.445	0.378
NCI-H1563	–	–	–	–	–	0.972	0.89	0.821	0.853	0.8	0.896	0.887	0.897	0.808	0.765	0.709	0.636	0.639	0.654	0.537
NCI-H2009	0.716	0.677	0.69	0.53	0.295	1.2	1	0.998	0.728	0.495	1.07	1.06	0.925	0.874	0.326	0.457	0.396	0.357	0.291	0.23
